Source: patent US10383910B2, “Methods of increasing fertility of a male subject with costus speciosus extract” (priority 2016, dated 2019)

Assays:
[1] = body weights of rats after 90 days of treatment; type: in vivo, rat
Protocol: (§1) Statistical analyses were performed using SPSS software version 21.00. One-way analysis of variance (ANOVA), post-hoc and least significant difference (LSD) were performed for intergroup comparisons. P>0.05, P≤0.05, and P≤0.001 were considered non-significant, significant, and highly significant, respectively.

testes = testes weights of rats after 90 days of treatment; type: in vivo, rat; settings: vs control group GI
Protocol: as §1

[2] = plasma levels of testosterone of rats after 90 days of treatment; type: in vivo, rat
Protocol: as §1

testis of the rats = test: histological examination of the rat testis (light microscopy, hematoxylin-eosin); settings: 90 days
Protocol: The experiments in the Examples were conducted on 30 male albino rats of the Wister strain with an age range of 40-45 days (approximately 6 weeks) and a weight range of 68-122 g. […] The rats were provided feed and water, and bred in a private room with a temperature of 24±2° C., a relative humidity of 55±5%, and a 12-hour light/12-hour dark cycle.
The first treatment group (GI) was a control treatment group composed of 5 rats that were given distilled water orally throughout the experiment.
The second treatment group (GII) was composed of 5 rats that were orally administered with only the root extract of Costus speciosus at a dose of 2 mg/kg body weight/day.
The third treatment group (GIII) was composed of 5 rats that were orally administered with risperidone at a low dose of 1 mg/kg body weight/day.
The fourth treatment group (GIV) was composed of 5 rats that were orally administered with both risperidone at the low dose of 1 mg/kg body weight/day and the root extract of Costus speciosus at 2 mg/kg body weight/day.
The fifth treatment group (GV) was composed of 5 rats that were orally administered with risperidone at a high dose of 2 mg/kg body weight/day.
The sixth treatment group (GVI) was composed of 5 rats that were orally administered with both the high dose of risperidone at 2 mg/kg body weight/day and the root extract of Costus speciosus at 2 mg/kg body weight/day. […]

[3] = GV: risperidone high dose 2 mg/kg/day oral

SMILES: Cc1nc2n(c(=O)c1CCN1CCC(c3noc4cc(F)ccc34)CC1)CCCC2 [risperidone, Risperidone]
- body weight ([1]; GIII: risperidone low dose 1 mg/kg/day oral, vs GI or GII): significant increase in body weight
- body weight ([1]; GV: risperidone high dose 2 mg/kg/day oral, vs GIII (low dose risperidone)): significant increase in body weight
- testes weight (testes; GIII: risperidone low dose 1 mg/kg/day oral): insignificant reduction in testes weight
- testes weight (testes; [3]): insignificant reduction in testes weight
- plasma level of testosterone ([2]; GIII: risperidone low dose 1 mg/kg/day oral, vs GIV (low dose + root extract)): insignificant reduction in the plasma level of testosterone
- plasma level of testosterone ([2]; GV: risperidone high dose 2 mg/kg/day oral, vs GVI (high dose + root extract)): insignificant reduction in the plasma level of testosterone
- histological findings in the testis (testis of the rats; GIII: risperidone low dose 1 mg/kg/day oral, vs GI): abnormal, disorganized, and atrophied seminiferous tubules (ST), disorganization of germinal epithelium, a loss of spermatogenic cell types (pointed by arrows), and a massive and wide-spread destruction of germ cells
- histological findings in the testis (testis of the rats; [3]): degeneration of the germinal epithelium lining (arrowheads), vacuolation of seminiferous tubules (ST) (*), and intertubular oedema
